From patent US5935945A, “Methods of treating or preventing cardiac arrhythmia” (Merck & Co., Inc., priority 1997, dated 1999)
pIC50: −log10 of the molar value.

These molecules were tested against T1, IKur (ultra-rapidly-activating delayed rectifier K^+ current) (Homo sapiens, UniProt P22460) (assay: Voltage-clamp measurement of IKur in isolated human atrial myocytes). Settings: rested state block, first pulse; 150 ms pulses to +40 mV from -50 mV; room temperature (22-24° C); read-out: Rested State IC50, IKur in Human Atrium.
T1 construct: isolated human atrial myocytes; from tissue; host or cells: isolated myocytes from human right atrial appendage
T1 sequence (P22460 whole entry): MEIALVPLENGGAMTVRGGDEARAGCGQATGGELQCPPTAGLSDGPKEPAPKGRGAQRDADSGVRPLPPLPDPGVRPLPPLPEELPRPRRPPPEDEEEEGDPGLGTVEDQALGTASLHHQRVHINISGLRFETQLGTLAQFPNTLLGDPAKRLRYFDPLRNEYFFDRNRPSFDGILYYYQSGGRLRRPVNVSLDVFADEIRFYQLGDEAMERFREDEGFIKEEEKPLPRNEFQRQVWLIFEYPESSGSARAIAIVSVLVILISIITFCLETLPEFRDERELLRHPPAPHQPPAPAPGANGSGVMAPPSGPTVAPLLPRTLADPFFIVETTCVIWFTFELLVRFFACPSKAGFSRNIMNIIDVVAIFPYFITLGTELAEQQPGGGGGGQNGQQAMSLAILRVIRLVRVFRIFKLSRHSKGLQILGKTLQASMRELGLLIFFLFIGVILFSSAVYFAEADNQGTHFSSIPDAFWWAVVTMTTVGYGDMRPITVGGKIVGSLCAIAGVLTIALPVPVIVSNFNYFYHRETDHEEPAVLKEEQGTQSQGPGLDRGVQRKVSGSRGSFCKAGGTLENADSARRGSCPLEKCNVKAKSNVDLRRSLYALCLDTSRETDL
Type: cell-based
Protocol: J. Physiol. […] All tissues were collected in accordance with Temple University School of Medicine Institutional guidelines. […] Tissue samples were quickly immersed in cold (0-4° C.) cardioplegia solution containing (in mM/L): 50 KH2 PO4, 8 MgSO4, 10 NaHCO3, 5 adenosine, 25 taurine, 140 glucose, and 100 mannitol, pH 7.4 and bubbled with 100% O2. […] The tissue was gently agitated by continuous bubbling with 100% O2 for 5 min. […] The supernatant was removed after 40 min and discarded. The chunks were then incubated in a solution of the same ionic composition but supplemented with only collagenase and […] CaCl2. Microscopic examination of the medium was performed every 10-20 min to determine the number and quality of isolated cells. […] The supernatant was collected in a 50 ml centrifuge tube. […] Cells were used within 2-24 hr after isolation.
A small aliquot of the solution containing the isolated human atrial myocytes was placed in a 1-ml chamber mounted on the stage of an inverted microscope. Five minutes were allowed for cell adhesion to the bottom of the chamber. To record IKur, human atrial myocytes were superfused with a solution of the same ionic composition as that used for Kv1.5. An alternative external solution was sometimes used in which NaCl was replaced with NMDG (formal name: N-methyl-d-glucamine) to inhibit INa.
The amplitude of IKur was measured as the amplitude of the time-dependentcurrent at the end of the test pulse, relative to the holding current level. […] All experiments were performed at room temperature (22-24° C.).
Molecule `Cc1cc(C)c(CP(=O)(c2ccccc2)c2ccccc2)c(-c2ccc(F)c(C)c2)c1` [Compound C, 2-(Diphenylphosphinylmethyl)-4'-fluoro-3,5,3'-trimethyl-biphenyl] has a pIC50 of 6.11.
Work on `COc1ccc(-n2nc(Sc3ccc(C)cc3)c(C)c(C#N)c2=O)cc1` [Compound B] yielded a pIC50 of 7.10.
`COc1ccc(-n2nc(Sc3ccc(Cl)cc3)c(C)c(C#N)c2=O)cc1` [Compound A, 6-(4-Chlorophenylthio)-2-(4-methoxyphenyl)-5-methyl-3-oxo-2,3-dihydropyridazine-4-carbonitrile] showed a pIC50 of 6.64.
